Active and inactive are the calls of the source.
Tests used:
HEK293 [1] = experiment: cytotoxicity in HEK293T NF-kB-Luc cells, SAR follow-up, cytotoxicity control for NF-kB activator project, cell-based, resazurin fluorescence (AID 493251); assay type: functional; conditions: Homo sapiens
Jurkat = experiment: SAR Analysis of small molecule inhibitors of T-cell specific antigen receptor-induced NF-kB activation in a Jurkat cell line using a luminescence assay - Set 2. [Related pubchem assays (depositor defined):AID435003, AID435012, AID465]; assay type: functional, cell-based; conditions: Homo sapiens
HEK293 [2] = experiment: SAR Analysis of small molecule inhibitors of T-cell specific antigen receptor-induced NF-kB activation in a HEK-293T cell line using a luminescence assay - Set 2. [Related pubchem assays (depositor defined):AID435003, AID435012, AID489026]; assay type: functional, cell-based; conditions: Homo sapiens
[3] = Luminescence Cell-Based Dose Confirmation HTS to Identify Activators of 5'UTR Stem-Loop Driven Alpha-Synuclein mRNA Translation in H4 Neuroglioblastoma Cells. [Related pubchem assays: 1829 (Project Summary), 1814 (Primary HTS)]; assay type: functional
H4 = experiment: Luminescence Cell-Based Dose Response HTS to Identify Activators of 5'UTR Stem-Loop Driven Prion Protein mRNA Translation in H4 Neuroglioblastoma Cells. [Related pubchem assays: 1829 (Project Summary), 1814 (Primary HTS)]; assay type: functional; conditions: Homo sapiens
[4] = Luminescence Cell-Based Dose Response HTS to Identify Activators of Luciferase Translation or Activity in H4 […] Cells. [Related pubchem assays: 1829 (Project Summary), 1814 (Primary HTS)]; assay type: functional
Escherichia coli = experiment: microbe, parasite or virus in culture
Prothrombin = Prothrombin (Bos taurus, UniProt P00735); experiment: thrombin inhibition, dose response, biochemical, fluorescence polarization, uHTS hits (AID 602369); assay type: functional
[5] = target: 26S proteasome non-ATPase regulatory subunit 14 (Homo sapiens, UniProt O00487); experiment: inhibition of proteasome subunit RPN11 – biochemical, fluorescence polarization, uHTS hits, confirmation (AID 602368); assay type: functional
Chain of 26S proteasome non-ATPase regulatory subunit 14 (O00487 whole entry): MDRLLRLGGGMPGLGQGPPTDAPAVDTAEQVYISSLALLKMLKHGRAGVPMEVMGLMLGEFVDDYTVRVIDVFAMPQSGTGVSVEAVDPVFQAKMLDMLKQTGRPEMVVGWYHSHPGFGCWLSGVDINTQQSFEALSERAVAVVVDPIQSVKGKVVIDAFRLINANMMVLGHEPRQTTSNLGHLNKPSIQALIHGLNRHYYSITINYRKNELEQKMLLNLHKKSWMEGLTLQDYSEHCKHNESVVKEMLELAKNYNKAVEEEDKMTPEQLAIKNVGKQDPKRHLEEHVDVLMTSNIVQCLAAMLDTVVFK

[6] = target: 72 kDa type IV collagenase (Homo sapiens, UniProt P08253); experiment: Dose Response validation of uHTS RPN11 inhibitor hits using a MMP-2 Fluorescence assay.; assay type: functional
Chain of 72 kDa type IV collagenase (P08253 whole entry): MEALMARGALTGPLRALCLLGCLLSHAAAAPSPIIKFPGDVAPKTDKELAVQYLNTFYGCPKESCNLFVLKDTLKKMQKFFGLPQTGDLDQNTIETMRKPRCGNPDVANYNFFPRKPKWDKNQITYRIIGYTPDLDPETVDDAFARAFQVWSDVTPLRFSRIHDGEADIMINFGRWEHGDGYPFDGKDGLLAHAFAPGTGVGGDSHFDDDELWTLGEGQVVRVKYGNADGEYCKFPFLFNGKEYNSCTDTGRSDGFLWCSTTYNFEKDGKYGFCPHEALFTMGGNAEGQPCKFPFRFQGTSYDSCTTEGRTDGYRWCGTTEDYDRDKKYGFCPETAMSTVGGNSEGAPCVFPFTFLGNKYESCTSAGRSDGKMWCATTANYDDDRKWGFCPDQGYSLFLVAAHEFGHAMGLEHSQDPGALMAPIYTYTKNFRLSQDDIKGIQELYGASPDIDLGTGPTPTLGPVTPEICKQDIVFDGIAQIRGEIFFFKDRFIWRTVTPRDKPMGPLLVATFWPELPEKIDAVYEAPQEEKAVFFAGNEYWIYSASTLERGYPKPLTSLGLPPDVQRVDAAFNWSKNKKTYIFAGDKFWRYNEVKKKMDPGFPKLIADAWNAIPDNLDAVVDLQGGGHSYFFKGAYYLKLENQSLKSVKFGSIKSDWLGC

[7] = target: DNA (cytosine-5)-methyltransferase 1 (Homo sapiens, UniProt P26358); experiment: DNMT1 methyltransferase inhibitors, confirmation, biochemical, fluorescent molecular beacon (AID 602386); assay type: functional
Chain of DNA (cytosine-5)-methyltransferase 1 (P26358 whole entry): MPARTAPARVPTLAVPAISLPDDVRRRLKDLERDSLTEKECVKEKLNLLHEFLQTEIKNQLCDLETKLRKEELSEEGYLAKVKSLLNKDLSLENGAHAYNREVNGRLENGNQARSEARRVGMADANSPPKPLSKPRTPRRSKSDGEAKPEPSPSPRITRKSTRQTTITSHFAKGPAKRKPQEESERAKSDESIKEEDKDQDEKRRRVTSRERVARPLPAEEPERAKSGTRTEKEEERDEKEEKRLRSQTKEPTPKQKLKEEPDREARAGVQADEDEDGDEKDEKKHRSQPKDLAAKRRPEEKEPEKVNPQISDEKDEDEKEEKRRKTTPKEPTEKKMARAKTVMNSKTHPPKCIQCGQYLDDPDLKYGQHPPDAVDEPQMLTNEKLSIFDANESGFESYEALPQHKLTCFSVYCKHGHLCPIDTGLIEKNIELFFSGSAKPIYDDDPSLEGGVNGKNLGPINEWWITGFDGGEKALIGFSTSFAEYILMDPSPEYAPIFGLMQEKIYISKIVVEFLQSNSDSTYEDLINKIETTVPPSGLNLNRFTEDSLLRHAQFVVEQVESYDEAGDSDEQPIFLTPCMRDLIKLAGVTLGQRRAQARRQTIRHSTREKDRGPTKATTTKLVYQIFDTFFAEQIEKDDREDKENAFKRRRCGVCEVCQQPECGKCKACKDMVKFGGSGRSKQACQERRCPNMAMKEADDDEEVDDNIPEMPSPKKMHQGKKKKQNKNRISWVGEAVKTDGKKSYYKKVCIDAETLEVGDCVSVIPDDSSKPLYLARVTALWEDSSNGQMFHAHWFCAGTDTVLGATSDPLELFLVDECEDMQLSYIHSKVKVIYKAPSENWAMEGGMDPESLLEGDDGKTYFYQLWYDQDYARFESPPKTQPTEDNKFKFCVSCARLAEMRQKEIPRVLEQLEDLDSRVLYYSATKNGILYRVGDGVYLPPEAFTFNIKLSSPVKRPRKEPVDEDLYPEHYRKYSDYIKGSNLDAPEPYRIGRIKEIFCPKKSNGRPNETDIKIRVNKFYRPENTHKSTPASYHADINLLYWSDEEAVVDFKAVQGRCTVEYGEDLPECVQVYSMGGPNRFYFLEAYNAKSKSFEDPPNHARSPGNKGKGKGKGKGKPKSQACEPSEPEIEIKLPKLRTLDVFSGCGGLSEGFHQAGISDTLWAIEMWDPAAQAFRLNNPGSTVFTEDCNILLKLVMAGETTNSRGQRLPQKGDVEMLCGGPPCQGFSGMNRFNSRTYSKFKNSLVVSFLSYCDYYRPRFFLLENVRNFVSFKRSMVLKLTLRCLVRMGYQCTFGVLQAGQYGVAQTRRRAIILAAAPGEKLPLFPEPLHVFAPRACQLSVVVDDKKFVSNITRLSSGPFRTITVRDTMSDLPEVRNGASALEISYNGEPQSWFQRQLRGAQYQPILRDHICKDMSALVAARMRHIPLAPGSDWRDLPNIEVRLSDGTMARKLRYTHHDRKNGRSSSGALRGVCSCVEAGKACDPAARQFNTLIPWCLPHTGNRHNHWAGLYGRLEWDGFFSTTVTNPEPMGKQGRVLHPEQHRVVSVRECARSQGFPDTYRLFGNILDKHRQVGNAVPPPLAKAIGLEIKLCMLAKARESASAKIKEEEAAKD

Caspase-6 = target: T1, Caspase-6 (Homo sapiens, UniProt P55212); experiment: human caspase-6 inhibitors, dose response, biochemical, VEID-R110 fluorescence, cherry-pick (AID 720632)
T1 sequence (P55212 whole entry): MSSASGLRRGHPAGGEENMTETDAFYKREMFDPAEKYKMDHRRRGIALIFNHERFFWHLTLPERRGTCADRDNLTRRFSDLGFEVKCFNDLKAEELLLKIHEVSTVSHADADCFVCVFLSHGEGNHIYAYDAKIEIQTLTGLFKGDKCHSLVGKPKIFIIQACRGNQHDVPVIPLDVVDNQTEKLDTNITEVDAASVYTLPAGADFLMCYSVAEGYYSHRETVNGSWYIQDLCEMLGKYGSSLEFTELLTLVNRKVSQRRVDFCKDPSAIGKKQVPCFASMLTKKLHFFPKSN

[8] = target: T2, Histone-lysine N-methyltransferase NSD2 (Homo sapiens, UniProt O96028); assay type: biochemical
T2 sequence (O96028 whole entry): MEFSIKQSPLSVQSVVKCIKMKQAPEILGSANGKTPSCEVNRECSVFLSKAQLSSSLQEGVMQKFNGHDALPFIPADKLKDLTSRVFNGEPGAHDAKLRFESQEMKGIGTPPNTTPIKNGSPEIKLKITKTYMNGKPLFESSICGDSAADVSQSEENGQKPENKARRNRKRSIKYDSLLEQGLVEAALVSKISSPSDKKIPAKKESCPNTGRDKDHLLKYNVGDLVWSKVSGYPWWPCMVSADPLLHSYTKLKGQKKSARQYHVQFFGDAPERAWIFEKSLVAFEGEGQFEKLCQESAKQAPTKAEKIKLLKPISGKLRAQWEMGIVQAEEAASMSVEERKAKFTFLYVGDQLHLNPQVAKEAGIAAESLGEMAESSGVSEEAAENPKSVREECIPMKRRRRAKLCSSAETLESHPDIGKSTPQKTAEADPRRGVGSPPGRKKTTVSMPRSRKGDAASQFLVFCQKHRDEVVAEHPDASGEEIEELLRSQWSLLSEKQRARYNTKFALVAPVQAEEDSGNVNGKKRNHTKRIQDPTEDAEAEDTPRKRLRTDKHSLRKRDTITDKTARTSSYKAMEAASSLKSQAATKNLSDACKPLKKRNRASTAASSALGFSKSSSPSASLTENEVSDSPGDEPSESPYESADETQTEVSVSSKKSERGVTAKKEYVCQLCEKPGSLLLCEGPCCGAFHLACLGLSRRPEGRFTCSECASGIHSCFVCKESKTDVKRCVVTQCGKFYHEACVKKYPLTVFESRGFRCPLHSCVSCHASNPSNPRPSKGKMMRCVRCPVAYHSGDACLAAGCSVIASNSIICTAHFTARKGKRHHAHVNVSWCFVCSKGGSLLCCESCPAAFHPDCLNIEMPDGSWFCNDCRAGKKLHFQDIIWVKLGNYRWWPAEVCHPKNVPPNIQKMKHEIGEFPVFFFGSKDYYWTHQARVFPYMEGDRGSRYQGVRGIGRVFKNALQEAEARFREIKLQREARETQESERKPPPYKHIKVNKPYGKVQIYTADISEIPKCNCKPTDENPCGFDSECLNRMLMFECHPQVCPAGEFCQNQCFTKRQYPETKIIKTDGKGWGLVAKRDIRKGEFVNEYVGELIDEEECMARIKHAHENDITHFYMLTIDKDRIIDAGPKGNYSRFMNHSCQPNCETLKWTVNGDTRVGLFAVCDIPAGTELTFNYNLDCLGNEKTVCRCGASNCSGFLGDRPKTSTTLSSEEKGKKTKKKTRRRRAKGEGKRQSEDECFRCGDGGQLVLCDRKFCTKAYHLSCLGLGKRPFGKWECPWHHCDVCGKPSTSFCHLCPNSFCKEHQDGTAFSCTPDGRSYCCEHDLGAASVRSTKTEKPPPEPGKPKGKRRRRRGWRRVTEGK

Melanocortin receptor 4 = Melanocortin receptor 4 (Homo sapiens, UniProt P32245); assay type: functional, cell-based;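 note: Cell-based assay with luminescence read-out, confirmatory dose-response testing for agonist activity of biased ligands at MC4R; human U2OS cells with tagged receptor and beta-arrestin; potency of agonists that increase receptor coupling to beta-arrestin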
Chain of Melanocortin receptor 4 (P32245 whole entry): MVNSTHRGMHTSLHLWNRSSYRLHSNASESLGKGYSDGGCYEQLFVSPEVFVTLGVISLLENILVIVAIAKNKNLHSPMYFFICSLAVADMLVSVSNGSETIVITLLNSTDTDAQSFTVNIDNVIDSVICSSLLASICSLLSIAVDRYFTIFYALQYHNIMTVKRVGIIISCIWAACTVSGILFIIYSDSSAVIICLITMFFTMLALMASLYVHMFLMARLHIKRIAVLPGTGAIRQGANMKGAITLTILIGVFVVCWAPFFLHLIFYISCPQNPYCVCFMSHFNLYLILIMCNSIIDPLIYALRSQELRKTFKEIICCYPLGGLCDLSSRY

For COc1ccc(C(=O)Nc2ccc(NC(=O)c3cc4ccccc4o3)cc2)cc1OC, which IC50 (HEK293 [1]) is on record?
The IC50 was > 80 µM (inactive).

What about the IC50 (Jurkat) of the same compound?
Its IC50 is > 79 µM (inactive).

And the IC50 (HEK293 [2])?
Its IC50 is > 80 µM (inactive).

For CC1Cc2cc(C(=O)C3=C(O)C(=O)N(Cc4ccco4)C3c3cccs3)ccc2O1 (centres undefined), which EC50 [3] is on record?
The EC50 was 11.9 µM (active).

What about the EC50 (H4) of the same compound?
Its EC50 is 35.2 µM (active).

And the EC50 [4]?
The EC50 was 8.54 µM (active).

And the AC50 (Escherichia coli)?
Its AC50 is 18.3 µM (active).

With COc1ccc(C2SCCN2S(=O)(=O)c2ccccc2)cc1 (centres undefined) as the compound, how does the AC50 (Escherichia coli) read?
The AC50 was 95.3 µM (active).

For COc1cc(/C=C2/C(=N)N3C(=NC2=O)SN=C3S(C)(=O)=O)ccc1OC(=O)c1ccco1, which IC50 (Prothrombin) is on record?
Its IC50 is 34.4 µM (active).

And the IC50 [5]?
Its IC50 is 31.9 µM (active).

And the IC50 [6]?
Its IC50 is 94.8 µM (active).

Which results are given for COc1ccc(/C=C2\Oc3cc(OCC(=O)N4CCC[C@H]4C(=O)O)ccc3C2=O)c(OC)c1?
IC50 (Prothrombin): 14.3 µM (active); IC50 [5]: 11 µM (active); IC50 [6]: > 100 µM (inactive)

For COc1ccc(S(=O)(=O)N2CCN(C(=O)C3COc4ccccc4O3)CC2)cc1 (centres undefined), which IC50 [7] is on record?
Its IC50 is 5.82 µM (active).

What about the AC50 (Caspase-6) of the same compound?
Its AC50 is 0.685 µM (active).

Which results are given for ClN=C1C=CC=CC1=NCl?
AC50 [8]: 4.62 µM (active); IC50 [7]: 7.2 µM (active)

For CC(C)c1ccc(NS(=O)(=O)c2ccc(-n3cccn3)cc2)cc1, which EC50 (Melanocortin receptor 4) is on record?
The EC50 was > 89.2 µM (inactive).

Reference: ChEMBL document CHEMBL1201862, “PubChem BioAssay data set” (2004)
